In brackets after ≈: the same amount, converted by molar mass.
What was measured:
[1] = tested on: vancomycin-susceptible enterococci, ATCC 29212
[2] = tested on: vancomycin-resistant enterococci (VanB), ATCC 51299; conditions: teicoplanin susceptible
[3] = tested on: VRE (VanA), MMX 486; conditions: vancomycin and teicoplanin resistant
[4] = tested on: methicillin-susceptible S. aureus, ATOC 29213
[5] = tested on: methicillin-resistant S. aureus, ATCC 43300
[6] = tested on: vancomycin-resistant enterococci (VanB), ATCC 51299; test: microbe, parasite or virus in culture; conditions: Enterococcus, ATCC51299|VRE, read-out: MIC, VRE (VanB)
[7] = tested on: VRE (VanA), MMX 486; test: microbe, parasite or virus in culture; conditions: Enterococcus, read-out: MIC, VRE (VanA)
[8] = tested on: vancomycin-susceptible enterococci, ATCC 29212; test: organism not typed; conditions: read-out: MIC, VSE

Molecule | MIC, VSE [1] [µg/mL] | MIC, VRE (VanB) [2] [µg/mL] | MIC, VRE (VanA) [3] [µg/mL] | MIC, MSSA [4] [µg/mL] | MIC, MRSA [5] [µg/mL] | MIC [6] [µg/mL] | MIC [7] [µg/mL] | MIC [8] [µg/mL]
Teicoplanin | 0.25 | 0.25 | >64 | 0.5 | 0.5 |  |  | 
CC(=O)NC[C@H]1CN(c2ccc(N3CCOCC3)c(F)c2)C(=O)O1 [Linezolid] |  |  |  |  |  | 2 (≈ 5.93 µM) | 2 (≈ 5.93 µM) | 2 (≈ 5.93 µM)
CN[C@H](CC(C)C)C(=O)N[C@H]1C(=O)N[C@@H](CC(N)=O)C(=O)N[C@H]2C(=O)N[C@H]3C(=O)N[C@H](C(=O)N[C@H](C(=O)O)c4cc(O)cc(O)c4-c4cc3ccc4O)[C@H](O)c3ccc(c(Cl)c3)Oc3cc2cc(c3O[C@@H]2O[C@H](CO)[C@@H](O)[C@H](O)[C@H]2O[C@H]2C[C@](C)(N)[C@H](O)[C@H](C)O2)Oc2ccc(cc2Cl)[C@H]1O [Vancomycin] | 2 (≈ 1.38 µM) | 16 (≈ 11 µM) | >64 | 0.5 (≈ 0.345 µM) | 1 (≈ 0.69 µM) |  |  | 
teicoplanin A2-2 | 0.25 | 0.25 | >64 | 0.5 | 0.5 |  |  | 

Source: PMC3800266 (Journal of the American Chemical Society, 2013)
